Source: patent US6737246B2, “Method for detecting protein inhibitors and ligands of medical value” (Aventis Pharma Deutschland, GmbH, priority 2000, dated 2004)

Target: T1, MMP-13 (Homo sapiens, UniProt P45452)
T1 construct: purchased Invitek GmbH, Berlin, Germany HM 13110010
Experiment: MMP-13 marker substrate conversion (fluorescence) in the presence of collagen II and test substance
Assay type: biochemical
Details: control without test substance 49%
Procedure: MMP-13 was obtained as a commercial product (Cat. No. HM 13110010) from Invitek GmbH, Berlin, Germany, activated according to the manufacturer's instruction, and diluted to 10 μg/10 ml with TCB buffer. TCB buffer was prepared by dissolving 10 mM tris(hydroxymethyl)aminomethane (Sigma-Aldrich Chemie GmbH, Deisenhofen, Germany) in water and adjusting the pH to 7.5 with HCl. 100 mM CaCl2×2H2O (Merck KGaA, Darmstadt, Germany) and 0.05% of Brij 35 solution, 30% (w/v) (Sigma-Aldrich Chemie GmbH, Deisenhofen, Deutschland), are added to said solution.
A solution of 10 mmol/l (7-methoxycoumarin-4-yl )acetyl-Pro-Leu-Gly-Leu-(3-[2,4-dinitrophenyl]-L-2,3-diaminopropionyl)-Ala-Arg-[…] (SEQ ID NO: 1). (Bachem Biochemica GmbH, Heidelberg, Germany) in dimethyl sulfoxide (DMSO) (Riedel-de Haen AG, Seelze, Germany) was diluted 1:40 (v/v) with water.
10 mg of human […] (Biocon, Potsdam, Germany) were dissolved in 2400 μl of 10 mmol/l acetic acid (72 hours at 4° C.), and then 1300 μl of a sodium bicarbonate solution (250 mmol/l) CaCl2×2H2O (Merck KGaA, Darmstadt, Germany) were added dropwise.
Test substance (suspected inhibitor or ligand), typically dissolved in water at an appropriate concentration relative to the amount of enzyme used.
The components A) (25 μl), B) (5 μl), C) (10 μl) and D) (10 μl) were mixed in a total volume of 50 μl, and fluorescence was measured in a commercial spectrofluorimeter after 15 minutes (excitation at 330 nm, emission at 390 nm, Spectrafluor plus, Tecan Deutschland GmbH, Crailsheim, Germany).
Enzyme and inhibitor were preincubated at room temperature for 15 min. The reaction was started by adding 5 μl of marker substrate solution (component B at 25 μM).
The fluorescence in example 1 was set at 100%, and the measured values of the other examples are based on this value.

[1] = 200 μmol/l test substance, components A (MMP-13), B (marker substrate), C (collagen II) present

| Compound | Measured value (fluorescence, example 1 set at 100%) [1] | Measured value (fluorescence, example 1 set at 100%) (200 μmol/l test substance, components A (MMP-13), B (marker substrate), C (collagen II) present, listed as (I)) | Measured value (fluorescence, example 1 set at 100%) (60 μg/well (60 μg/50 μl) test substance, components A, B, C present) |
| --- | --- | --- | --- |
| C[C@H]1c2cccc(O)c2C(=O)C2=C(O)[C@]3(O)C(=O)C(C(N)=O)=C(O)[C@@H](N(C)C)[C@@H]3[C@@H](O)[C@@H]21 [doxycycline] | 0% |  |  |
| Fc1ccc(/C(=C\CCN2CCC(=C(c3ccccc3)c3ccccc3)CC2)c2ccccc2)cc1 [substance (I), 4-(diphenylmethylene)-1-[4-(p-fluorophenyl)-4-phenyl-3-butenyl]piperidine] | 59% | 59% |  |
| protamine sulfate |  |  | 73% |
